Values quoted from earlier work in publication PMC7033111, “Rational design of novel benzisoxazole derivatives with acetylcholinesterase inhibitory and serotoninergic 5-HT4 receptors activities for the treatment of Alzheimer’s disease” (Scientific Reports, 2020).

How the values were obtained:
[1] = set-up: method as in PMID 25157130; conditions: mice; cited from earlier work
h5-HT4eR = conditions: donecopride reference value; read-out: 5-HT4R Ki; cited from earlier work
hAChE = tested on: hAChE; set-up: method as in PMID 25157130; conditions: donecopride reference value; cited from earlier work
5-HT4R = conditions: cited from earlier work

For `COc1cc(N)c(Cl)cc1C(=O)CCC1CCN(CC2CCCCC2)CC1` [donecopride], the “in vivo effects, object recognition test” value [1] is given as “improvement of memory performances”, the Ki (h5-HT4eR) is given as 0.0085 ± 0.0003 µM and the IC50 (hAChE) is given as 0.016 ± 0.005 µM. The “% of control agonist response (5-HT4R)” value (5-HT4R) was 48%.
